Our source for the Kd values is PubChem BioAssay AID1648 (Sanford-Burnham Center for Chemical Genomics, 2009).

Each structure is given as a SMILES string. Calls of active or inactive are those of the source. How the calls were made is not given here. A value given as a limit tells only on which side of the number the result lay.

This experiment deals with Serine/threonine-protein kinase mTOR (Homo sapiens) (UniProt P42345). The experiment can be described thus: binders of mTOR FRB domain, biophysical, NMR (AID 1648). As to conditions: NMR binding to FRB domain, chemical shift.
Sequence of Serine/threonine-protein kinase mTOR (Homo sapiens) (P42345 2015-2114): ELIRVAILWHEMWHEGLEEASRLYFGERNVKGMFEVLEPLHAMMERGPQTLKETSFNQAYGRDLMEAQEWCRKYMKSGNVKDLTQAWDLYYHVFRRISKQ
With `O=S(=O)(Nc1cccnc1Cl)c1ccccc1`, the Kd was > 4 mM (inactive). To `CC(C)c1c(O)ccc2c1CCC1C(C)(C)CCC[C@]21C` (some centres undefined) belongs > 4 mM (inactive).

Take `Nc1[nH]c(=S)[nH]c(=O)c1-c1ccccc1`: the Kd was > 4 mM (inactive).

As for `CC(=O)NC12CC3CC(C)(C1)CC(NC(C)=O)(C3)C2`, the Kd is > 4 mM (inactive). Consider `Oc1ccc(C(=S)N2CCCCC2)cc1Cl`, for which the Kd was > 4 mM (inactive). The value for `O=C(Nc1cccc2ncccc12)c1cccnc1` was > 4 mM (inactive); that for `Cc1cc(C)c(C#N)c(N2CCCC2)n1` was > 4 mM (inactive); that for `CC(=O)Nc1ccc(NC(=O)N2CCOCC2)cc1` was > 4 mM (inactive). To `O=C(COc1ccccc1Cl)N1CCCC1` belongs > 4 mM (inactive); to `O=C(c1ccco1)N1C(=O)c2cccc3cccc1c23`, > 4 mM (inactive); to `Cc1nc2ccc(F)cc2cc1C(=O)NCc1ccco1`, > 4 mM (inactive).

As for `C/C=C(\C)c1nnc(NC(=O)C(C)C)s1`, the Kd is > 4 mM (inactive). To `CCc1ccccc1NC(=O)c1cnccn1` belongs > 4 mM (inactive).

For `CC(C)(C#N)O[C@@H]1O[C@H](CO)[C@@H](O)[C@H](O)[C@H]1O`, the Kd is > 4 mM (inactive). Take `Cc1cc(C)n(C/C=C/Cn2nc(C)cc2C)n1`: the Kd is > 4 mM (inactive). To `O=C1CN2C(=N1)N(Cc1ccccc1)c1ccccc12` belongs > 4 mM (inactive).

For the compound `COc1cc([C@@H]2c3cc4c(cc3[C@H](OC(C)=O)[C@H]3COC(=O)[C@H]23)OCO4)cc(OC)c1OC`, the Kd is > 4 mM (inactive).

Regarding `NCCCCN`, the Kd was > 4 mM (inactive). Consider `Nc1ccccc1OC(F)(F)F`, for which the Kd was > 4 mM (inactive). To `COc1ccc([C@H]2COc3c(ccc(O)c3OC)C2)c(OC)c1O` belongs > 4 mM (inactive); to `CC(=O)Nc1cccc(-c2nnc(-c3ccccc3)o2)c1`, > 4 mM (inactive).

For the compound `Cc1nc(-c2ccccc2)sc1CO`, the Kd was > 4 mM (inactive). To `NS(=O)(=O)c1ccccc1Cl` belongs > 4 mM (inactive); to `Cc1sc(N)c(C(N)=O)c1C`, > 4 mM (inactive). To `NC(=O)C1CCN(S(=O)(=O)c2ccccc2)CC1` belongs > 4 mM (inactive); to `Cc1nccc(-c2cccc(N)c2)n1`, > 4 mM (inactive); to `Cc1cc(C)n(CC(=O)NC2CCCCC2)n1`, > 4 mM (inactive). On to `COc1cc(O)c(C(=O)c2ccccc2)cc1O`, for which the Kd was > 4 mM (inactive).

For `Nc1ncnc2c1ncn2C1C[C@H](O)[C@@H](CO)O1` (some centres undefined), the Kd is > 4 mM (inactive). Take `Cn1ccc(C(=O)NC(=S)NN2CCOCC2)n1`: the Kd is > 4 mM (inactive). To `COc1ccc2c(c1)OC1(O)COc3cc(OC)c(OC)cc3C1=C2` (centres undefined) belongs > 4 mM (inactive); to `COC(=O)CSc1n[nH]c(N)n1`, > 4 mM (inactive). The value for `Cc1nc(-c2ccccc2)ncc1CO` was > 4 mM (inactive). The value for `O=C1NC(=S)N/C1=C/c1ccc(O)c(Cl)c1` was > 4 mM (inactive); that for `O=C1c2ccccc2C(=O)N1/N=C/c1ccc[nH]1` was > 4 mM (inactive); that for `Cc1occc(=O)c1O` was > 4 mM (inactive).

Regarding `Cc1cc(C(=O)Nc2cccnc2)cs1`, the Kd was > 4 mM (inactive). The value for `COc1cc2c(cc1OC)-c1nnnn1C(C)(C)C2` was > 4 mM (inactive); that for `Cc1cc(C)nc(/N=C(/N)N2CCN(C)CC2)n1` was > 4 mM (inactive); that for `COc1c2c(cc3c1OCO3)CCN(C)C2` was > 4 mM (inactive). To `O=c1[nH]cc(NCc2ccccc2)c(=O)[nH]1` belongs > 4 mM (inactive); to `COCC(=O)OCn1nnc2ccccc2c1=O`, > 4 mM (inactive); to `O=C(O)C12CC3CC(CC(O)(C3)C1)C2`, > 4 mM (inactive). As for `O=S1(=O)CCC(NC(=S)Nc2ccccc2)C1` (centres undefined), the Kd was > 4 mM (inactive). The value for `O=c1c[n+]([O-])c2ccccc2n1OCc1ccccc1` was > 4 mM (inactive). The value for `OCc1ccc2c(c1)OCCCO2` was > 4 mM (inactive); that for `CC1/C(=N/O)C[C@@H]2C[C@H]1C2(C)C` (some centres undefined) was > 4 mM (inactive); that for `CCSc1nc(C)c(CC)c(C)c1C(N)=O` was > 4 mM (inactive). The value for `COc1cc2c(cc1OC)Cc1cc(OC)c(OC)cc1Cc1cc(OC)c(OC)cc1C2` was > 4 mM (inactive). As to `Cc1nnsc1C(=O)Nc1ccccn1`, the Kd was > 4 mM (inactive). To `COC(=O)Nc1nc2c(C)cccc2s1` belongs > 4 mM (inactive); to `COc1ccc(-c2nnc(-c3ccc(N)cc3)o2)cc1`, > 4 mM (inactive); to `O=S(=O)(c1cccc2cccnc12)N1CCOCC1`, > 4 mM (inactive).

Take `CC(=O)c1ccc(NS(=O)(=O)c2cccc(C)c2)cc1`: the Kd was > 4 mM (inactive). The value for `NCC1COc2ccccc2O1` (centres undefined) was > 4 mM (inactive). To `CCCNC(CC(=O)Nc1cccnc1)C(=O)O` (centres undefined) belongs > 4 mM (inactive). To `OCC1CCN(Cc2ccccc2)CC1` belongs > 4 mM (inactive); to `O=c1[nH]c2c(c(=O)n1C1CCCCC1)CCC2`, > 4 mM (inactive); to `CC(=O)Oc1ccc(/C=C/c2cc(OC(C)=O)cc(OC(C)=O)c2)cc1`, > 4 mM (inactive). For `O=C(O)CNC(=O)c1ccc([N+](=O)[O-])cc1`, the Kd was > 4 mM (inactive). To `NC(=O)c1cc(N)cc(C(N)=O)c1` belongs > 4 mM (inactive); to `CN1CCN(CC(O)c2ccccc2)CC1` (centres undefined), > 4 mM (inactive); to `O=C(O)c1cccc(O)c1O`, > 4 mM (inactive). Consider `O=C1CNC(=O)/C1=C/c1ccc(O)cc1`, for which the Kd is > 4 mM (inactive).

Regarding `Cc1cc(NC(=O)c2cnn3cccnc23)no1`, the Kd is > 4 mM (inactive).

For the compound `O=C1C=CC2=C3c4cc(O)c(O)cc4CC3(O)COC2=C1O` (centres undefined), the Kd was > 4 mM (inactive).

On to `CC(C)CCCC(C)[C@H]1CCC2C3CC[C@@H]4C[C@H](O)CC[C@]4(C)C3CC[C@@]21C` (some centres undefined), for which the Kd is > 4 mM (inactive). For the compound `Cc1cc(NS(=O)(=O)Cc2ccccc2)no1`, the Kd was > 4 mM (inactive). Turning to `CC(C)=CCC/C(C)=C/CC/C(C)=C/CC/C(C)=C/CC/C(C)=C/CC/C(C)=C/CC/C(C)=C/CC/C(C)=C/CC/C(C)=C/CO`, the Kd is > 4 mM (inactive). Turning to `CN(C)C(=O)c1ccc(-c2n[nH]c(=O)c3ccccc23)cc1`, the Kd is > 4 mM (inactive).

For `O=C(OCc1c(Cl)cccc1Cl)c1cnccn1`, the Kd was > 4 mM (inactive). To `CC(=O)OCC(=O)[C@@]1(O)CCC2C3CC[C@@H]4C[C@H](O)CC[C@]4(C)C3C(=O)C[C@@]21C` (some centres undefined) belongs > 4 mM (inactive). To `CC(=O)Nc1cccc(NC(=O)c2cccnc2)c1` belongs > 4 mM (inactive); to `CCOC(=O)C1=C(O)CCN(C)C1`, > 4 mM (inactive).

`COC(=O)Nc1c(C)n(C)n(-c2ccccc2)c1=O`: the Kd was > 4 mM (inactive). In the case of `NC(CC(=O)O)c1ccccc1` (centres undefined), the Kd is > 4 mM (inactive). To `CC1(C)CC2C1CCC1(C)OC2(C)CCC1O` (centres undefined) belongs > 4 mM (inactive).

As for `COn1c(=O)c(C)[n+]([O-])c2ccccc21`, the Kd was > 4 mM (inactive). To `Cc1ccccc1NC(=O)CSc1ccnc(=O)[nH]1` belongs > 4 mM (inactive); to `Cc1nc(-c2cnccn2)sc1C(=O)O`, > 4 mM (inactive). The value for `Cn1c(CSc2nc3ccccc3s2)n[nH]c1=S` was > 4 mM (inactive); that for `Cc1c(C(=O)NC2=NCCS2)oc2ccccc12` was > 4 mM (inactive); that for `NC(=O)c1ccc(Cl)c(N2C(=O)CCC2=O)c1` was > 4 mM (inactive). To `Cc1n[nH]c(C)c1-c1ccccc1C(=O)O` belongs > 4 mM (inactive); to `CC(=O)Nc1nnc(-c2ccccc2S(C)(=O)=O)o1`, > 4 mM (inactive). `COC1=CC(=O)C=C(OC)C1=O`: the Kd is > 4 mM (inactive). Consider `CNc1nnc(CSc2nc(C)cc(C)n2)s1`, for which the Kd is > 4 mM (inactive). To `Cc1ccccc1N1C(=O)CC(=O)NC1=O` belongs > 4 mM (inactive). To `CN1C2C[C@H](OC(=O)[C@H](CO)c3ccccc3)C[C@H]1[C@@H](O)C2` belongs > 4 mM (inactive); to `Cc1ccc(-n2ncc(C#N)c2/N=C/N(C)C)cc1`, > 4 mM (inactive); to `CCCn1c(S(=O)(=O)O)nc2ccccc21`, > 4 mM (inactive). The value for `CC(=O)O[C@H]1CC[C@@]2(C)C(CC[C@]3(C)C2CC=C2C4CC(C)(C)CC[C@]4(C)CC[C@]23C)C1(C)C` (some centres undefined) was > 4 mM (inactive); that for `O=c1c2ccccc2oc2ccccc12` was > 4 mM (inactive). On to `O=c1cc(O)n(-c2ccc(F)cc2)c(=S)[nH]1`, for which the Kd was > 4 mM (inactive).

As for `COc1cc(OC)c2c(c1Cl)OC1(C2=O)C(O)=CC(=O)CC1C` (centres undefined), the Kd is > 4 mM (inactive). To `Cc1nc2ccc(NC(=O)N3CCSCC3)cc2s1` belongs > 4 mM (inactive); to `O=C(NCCO)c1cc2ccccc2cc1O`, > 4 mM (inactive); to `N#Cc1cc(-c2ccccc2)oc1N`, > 4 mM (inactive). The value for `CCOC(=O)Cn1cnc2sc3c(c2c1=O)CCC3` was > 4 mM (inactive); that for `COc1ccc(S(=O)(=O)Nc2ccccn2)c(C)c1C` was > 4 mM (inactive). The value for `Nc1cc(N)nc(SCc2cccnc2)n1` was > 4 mM (inactive); that for `S=c1[nH]ncn1-c1ccccc1` was > 4 mM (inactive); that for `O=C(Nc1ccccc1)C(=O)NC1CC1` was > 4 mM (inactive). On to `Cc1noc(C)c1C(=O)NC1=NCCS1`, for which the Kd was > 4 mM (inactive).

The term Kd denotes the free concentration of one partner at which half of the binding sites on the other are occupied at equilibrium, for simple one-to-one binding.
